The term GI50 denotes the concentration at which growth is held to half of that of the control. A word on the TGI: it is the concentration at which net growth stops.

Where “and” joins values, the source holds several entries; their conditions need not be identical. Identical values can stand only once.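 Following 48 hours of exposure in 96-well plates, responses at five concentrations were used to interpolate endpoints linearly. At the GI50, growth is halved. TGI marks complete inhibition of growth.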

What all share (assay): DTP human tumour cell line panel, 48 h
Assay [1] has as its system ACHN renal.
The subject of assay [2] is COLO 205 colon.
The test system of assay [3] is HOP-62 NSCLC.
Assay [4] concerns LOX IMVI melanoma.
For assay [5], the system named is OVCAR-5 ovarian.
For assay [6], the system named is SF-295 CNS.
For assay [7], the system named is SK-MEL-2 melanoma.
For assay [8], the system named is SR leukemia.
The subject of assay [9] is TK-10 renal.
For assay [10], the system named is UO-31 renal.

Turning to `CS(=O)(=O)CCNCc1nc(-c2ccc3ncnc(Nc4ccc(OCc5cccc(C(F)(F)F)c5)cc4)c3c2)cs1`, the GI50 in assay [1] is > 21.9 µM; in [2], > 23.9 µM; in [3] it was 5.5 µM; in assay [4], > 25 µM; in assay [5] it was > 25 µM; in [6], 9.45 µM. For the same compound, the GI50 in assay [7] was 8.7 µM; in assay [8], > 22.2 µM; in [9] it was 1.67 µM; in assay [10] it was > 22.6 µM. In addition, the TGI in [1] was > 25 µM; in assay [2], > 25 µM; in [3] it was 12.9 µM; in assay [4] it was > 25 µM; in assay [5] it was > 25 µM; in [6] it was > 25 µM. The concentration for total growth inhibition (TGI) was > 22.1 µM in assay [7], > 25 µM in assay [8], > 25 µM in [9] and > 25 µM in assay [10].

Consider `COc1cc(Cn2c(-c3ccccc3)c(Cl)c3c2-c2oncc2CC3)cc(OC)c1`, for which the GI50 in assay [1] is 9.31 µM; in [2] it was 8.03 µM; in assay [3], 44 µM; in assay [4], 3.06 µM; in [5], 47 µM; in assay [6] it was 3.05 µM. In addition, the GI50 in assay [7] was 10.6 µM; in assay [8], 2.92 µM; in assay [9], 26.5 µM; in [10], 4.16 µM. Besides, the TGI was > 100 µM in assay [1]; 30.6 µM in [2]; > 100 µM in [3]; 12 µM in assay [4]; > 100 µM in [5]; > 100 µM in assay [6]. The TGI is > 100 µM in assay [7], 15.5 µM in [8], > 100 µM in assay [9] and 27.7 µM in assay [10].

For `COc1ccc(C(=O)/C=C/c2cc(-c3cc(OC)c(OC)c(OC)c3)n[nH]2)cc1OC`, the GI50 in assay [1] is 1.66 µM; in assay [2], 1.74 µM; in [3], 1.44 µM; in [4], 1.38 µM; in [5], 1.59 µM; in assay [7], 1.85 µM. The GI50 in assay [8] was 0.278 µM; in [9], 1.33 µM; in assay [10], 1.28 µM. Also, the TGI in assay [1] was 3.09 µM; in [2] it was 3.21 µM; in assay [3], 2.77 µM; in assay [4], 2.76 µM; in assay [5] it was 3.03 µM; in assay [7], 3.51 µM. For the same compound, the figures for the TGI in [8], in assay [9] and in assay [10] were > 100 µM, 2.6 µM and 2.57 µM, respectively.

`C=C(Cl)C(Br)(CCl)CCC(Br)C(C)(C)Cl` (stereo not drawn): the GI50 in [1] is 3.94 µM; in assay [2], 2.13 µM; in assay [4] it was 1.76 µM; in assay [7] it was 3.14 µM; in assay [10] it was 2.17 µM. For the same compound, the TGI in assay [1] is 9.71 µM; in assay [2], 4.64 µM; in assay [3], 7.66 µM; in assay [4], 3.73 µM and 4.22 µM; in [5], 19.4 µM; in assay [6] it was 19.9 µM. Besides, the TGI in assay [7] was 7.42 µM; in assay [8] it was 7.28 µM; in [9], 24.6 µM; in assay [10] it was 8.19 µM and 4.53 µM.

Consider `Cc1[nH]c2ccccc2c1C(=O)/C=C/c1ccccc1O`, for which the TGI in [1], in assay [2], in assay [3], in [4], in assay [5] and in assay [6] was > 100 µM in each case. For the same compound, the TGI in [7], in [8], in assay [9] and in [10] was > 100 µM throughout.

On to `CCOC(=O)Nc1ccc(C)c(NC(=O)OCC)c1`, for which the TGI in [1], in assay [2], in assay [3], in assay [4], in assay [5] and in assay [6] was > 100 µM each time. In addition, the TGI in [7], in assay [8], in [9] and in assay [10] was > 100 µM in each case.

In the case of `CC(C)Oc1ccc2cc(-c3nn(CC4CCNCC4)c4ncnc(N)c34)ccc2c1`, the GI50 is 10.5 µM in assay [1]; 3.39 µM in [2]; 15.6 µM in [3]; 16.7 µM in [4]; 11.9 µM in [5]; 3.67 µM in assay [6]. The GI50 was 10.8 µM in [7], 1.53 µM in assay [8], 12.8 µM in assay [9] and 4.15 µM in [10]. Also, the concentration for total growth inhibition (TGI) in assay [1] was 22.2 µM; in assay [2], 13.2 µM; in assay [3], 31.4 µM; in assay [4] it was 33.8 µM; in assay [5] it was 24.1 µM; in assay [6], 14.2 µM. For the same compound, the TGI in assay [7] stood at 24.4 µM; in assay [8], 4.44 µM; in assay [9] it was 25.7 µM; in assay [10] it was 18.9 µM.

Take `O=C(/C=C/c1cccc2ccccc12)c1ccccc1Cl`: the TGI was 31.3 µM in assay [1]; > 100 µM in assay [2]; 37.3 µM in [3]; 34.7 µM in assay [7]; 11.3 µM in assay [8]; 28.1 µM in [9]. Further, the TGI in [10] was 28 µM.

`COc1cc(-c2cc(-c3cc4c([nH]c5ccccc54)c(-c4cc(OC)c(OC)c(OC)c4)n3)cc(-c3ccccc3)n2)cc(OC)c1OC`: the GI50 in [1] was 4.57 µM; in [2] it was 4.11 µM; in assay [3] it was 4.53 µM; in assay [4], 4.42 µM; in [5] it was 25.7 µM; in assay [7], 2.58 µM. In addition, the GI50 is 3.56 µM in assay [8], 4.5 µM in assay [9] and 3.02 µM in assay [10]. The TGI in assay [1] was > 100 µM; in [2] it was 21.9 µM; in [3] it was > 100 µM; in assay [4], 26.5 µM; in [5], > 100 µM; in assay [7] it was 6.36 µM. Further, the TGI in assay [8] is > 100 µM; in assay [9] it was 31.2 µM; in [10], 74.4 µM.

These data come from PubChem BioAssay (NCI).
